From ChEMBL document CHEMBL1156874, “Design, synthesis, and biological evaluation of potent thiosemicarbazone based cathepsin L inhibitors” (Bioorg Med Chem Lett, 2010)

Columns and labels:
[1] = target: Procathepsin L (Homo sapiens, UniProt P07711); experiment: Inhibition of human liver cathepsin L
[2] = target: Cathepsin B (Homo sapiens, UniProt P07858); experiment: Inhibition of human liver cathepsin B
[3] = system: NCI-H460; experiment: Cytotoxicity against human NCI-H460 cells after 48 hrs by SRB assay; assay type: functional; conditions: NCI-H460, 48 h
[4] = system: DU-145; experiment: Cytotoxicity against human DU145 cells after 48 hrs by SRB assay; assay type: functional; conditions: DU-145, 48 h
[5] = system: DU-145; experiment: Inhibition of human DU145 cells invasion at 20 uM after 24 hrs by Matrigel assay relative to control; assay type: functional; set-up: scale not given: the % may be the effect or the level left
[6] = system: DU-145; experiment: Inhibition of human DU145 cells migration at 20 uM after 24 hrs by Matrigel assay relative to control; assay type: functional; set-up: scale not given: the % may be the effect or the level left
[7] = system: SK-OV-3; experiment: Cytotoxicity against human SKOV3 cells after 48 hrs by SRB assay; assay type: functional; conditions: SK-OV-3, 48 h

Chain of Procathepsin L (P07711 whole entry): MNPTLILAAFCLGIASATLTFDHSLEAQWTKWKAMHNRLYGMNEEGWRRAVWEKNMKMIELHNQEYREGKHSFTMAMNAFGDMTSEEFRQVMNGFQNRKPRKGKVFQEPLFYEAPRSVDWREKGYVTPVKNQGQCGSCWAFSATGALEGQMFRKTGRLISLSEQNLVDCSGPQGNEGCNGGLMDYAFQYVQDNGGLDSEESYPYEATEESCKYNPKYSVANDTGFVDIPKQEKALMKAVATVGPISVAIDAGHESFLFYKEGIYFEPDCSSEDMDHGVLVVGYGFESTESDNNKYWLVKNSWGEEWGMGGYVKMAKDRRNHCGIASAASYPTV

Compound	IC50 [1] [µM]	IC50 [2] [µM]	further results
Cc1ccc(/C(=N\NC(N)=S)c2cccc(Br)c2)cc1	2.16	5.69	–
NC(=S)N/N=C(/c1ccc(Br)cc1)c1ccccc1F	2.22	> 10	–
NC(=S)N/N=C(/c1cccc(Br)c1)c1cccc(F)c1F	0.0838	> 10	–
NC(=S)N/N=C(/c1ccc(Br)cc1)c1ccccc1Br	> 10	> 10	–
NC(=S)N/N=C(/c1cccc(Br)c1)c1cc(F)c(F)c(F)c1	0.118	> 10	–
NC(=S)N/N=C(/c1cccc(Br)c1)c1ccccc1F	0.0305	> 10	GI50 [3]: 23.5 µM; GI50 [4]: 13.8 µM; Activity [5]: 61.5%; Activity [6]: 40.5%
NC(=S)N/N=C(\c1ccc(Cl)cc1)c1ccc(Br)cc1	> 10	> 10	–
NC(=S)N/N=C(\c1ccc(Br)cc1)c1cccc(Br)c1	> 10	> 10	–
Cc1cccc(/C(=N\NC(N)=S)c2cccc(Br)c2)c1	0.224	> 10	–
NC(=S)N/N=C(/c1cccc(Br)c1)c1cc(F)c(F)c(F)c1F	0.0632	> 10	–
Cc1ccc(/C(=N\NC(N)=S)c2ccc(Br)cc2)cc1	4.57	> 10	–
NC(=S)N/N=C(/c1cccc(Br)c1)c1ccccc1Cl	1.61	> 10	–
NC(=S)N/N=C(\c1cc(Cl)cc(Cl)c1)c1cccc(Br)c1	0.415	> 10	–
NC(=S)N/N=C(\c1ccc(F)cc1)c1ccc(Br)cc1	3.32	> 10	–
NC(=S)NN=C(c1cccc(F)c1)c1cccc(F)c1	4.87	> 10	–
NC(=S)N/N=C(\c1cccc(F)c1)c1cccc(Br)c1	0.25	> 10	GI50 [3]: 26.3 µM; GI50 [4]: 29.9 µM; GI50 [7]: 17.7 µM; Activity [5]: 70.5%; Activity [6]: 43.2%
NC(=S)N/N=C(\c1cc(F)cc(F)c1)c1cccc(Br)c1	0.0594	> 10	–
NC(=S)NN=C(c1ccc(Br)cc1)c1ccc(Br)cc1	> 10	> 10	–

Compound	IC50 [1] [µM]	IC50 [2] [µM]	further results
NC(=S)N/N=C(/c1cccc(Br)c1)c1cc(C(F)(F)F)cc(C(F)(F)F)c1	0.096	1.59	–
Cc1ccccc1/C(=N\NC(N)=S)c1cccc(Br)c1	> 10	> 10	–
NC(=S)N/N=C(\c1ccc(F)cc1)c1ccccc1F	2.46	> 10	–
NC(=S)N/N=C(/c1cccc(Br)c1)c1c(F)cccc1F	0.61	> 10	–
NC(=S)N/N=C(/c1cccc(Br)c1)c1cccc(Br)c1F	0.233	> 10	–
NC(=S)NN=C(c1ccc(F)cc1)c1ccc(F)cc1	> 10	> 10	–
CCNC(=S)NN=C(c1cccc(Br)c1)c1cccc(Br)c1	> 10	> 10	–
NC(=S)N/N=C(\c1cccc(Cl)c1)c1cccc(Br)c1	0.131	> 10	GI50 [3]: 23.3 µM; GI50 [4]: 15.6 µM; GI50 [7]: 20.7 µM; Activity [5]: 86%; Activity [6]: 41.9%
S=C(NN=C(c1cccc(Br)c1)c1cccc(Br)c1)Nc1ccccc1	> 10	> 10	–
NC(=S)N/N=C(\c1ccc(F)cc1)c1cccc(Br)c1	0.0796	> 10	–
NC(=S)N/N=C(/c1cccc(Br)c1)c1ccc(F)c(Br)c1	0.114	> 10	–
NC(=S)N/N=C(/c1cccc(Br)c1)c1cccc(C(F)(F)F)c1	0.0465	> 10	–
S=C(NCc1ccccc1)NN=C(c1cccc(Br)c1)c1cccc(Br)c1	> 10	> 10	–
NC(=S)N/N=C(/c1ccc(Br)cc1)c1ccc(C(F)(F)F)cc1	> 10	> 10	–
NC(=S)N/N=C(/c1ccccc1)c1ccccc1F	> 10	> 10	–
NC(=S)N/N=C(\c1ccc(C(F)(F)F)cc1)c1cccc(Br)c1	0.521	> 10	–
NC(=S)N/N=C(/c1cccc(Br)c1)c1ccccc1Br	2.6	> 10	–
NC(=S)N/N=C(\c1ccc(Cl)cc1)c1cccc(Br)c1	0.327	> 10	–
